Measured values as given in ChEMBL document CHEMBL3612057, “Discovery of indolizines containing triazine moiety as new leads for the development of antitumoral agents targeting mitotic events” (2015).
Calls of active or inactive are those of the source. No cut-off for these calls is given here.

How the values were obtained:
MDA-MB-231 = assay: Cytotoxicity against human MDA-MB-231 cells assessed as growth inhibition at 10 uM after 24 hrs by SRB assay; format: functional
RXF 393 = assay: Cytotoxicity against human RXF393 cells assessed as growth inhibition at 10 uM after 24 hrs by SRB assay; format: functional
OVCAR-3 = assay: Cytotoxicity against human OVCAR3 cells assessed as growth inhibition at 10 uM after 24 hrs by SRB assay; format: functional
HOP-92 = assay: Cytotoxicity against human HOP92 cells assessed as growth inhibition at 10 uM after 24 hrs by SRB assay; format: functional
SK-MEL-5 = assay: Cytotoxicity against human SK-MEL-5 cells assessed as growth inhibition at 10 uM after 24 hrs by SRB assay; format: functional
NCI-H460 = assay: Cytotoxicity against human NCI-H460 cells assessed as growth inhibition at 10 uM after 24 hrs by SRB assay; format: functional
SK-MEL-28 = assay: Cytotoxicity against human SK-MEL-28 cells assessed as growth inhibition at 10 uM after 24 hrs by SRB assay; format: functional
Ovis aries = species: Ovis aries; assay: Inhibition of sheep tubulin polymerization at 100 uM by fluorescence assay
SR = assay: Cytotoxicity against human SR cells assessed as growth inhibition at 10 uM after 24 hrs by SRB assay; format: functional; settings: read-out: GI
TK-10 = assay: Cytotoxicity against human TK10 cells assessed as growth inhibition at 10 uM after 24 hrs by SRB assay; format: functional
SNB-75 = assay: Cytotoxicity against human SNB75 cells assessed as growth inhibition at 10 uM after 24 hrs by SRB assay; format: functional
CCRF-CEM = assay: Cytotoxicity against human CCRF-CEM cells assessed as growth inhibition at 10 uM after 24 hrs by SRB assay; format: functional
CAKI-1 = assay: Cytotoxicity against human CAKI-1 cells assessed as growth inhibition at 10 uM after 24 hrs by SRB assay; format: functional
RPMI-8226 = assay: Cytotoxicity against human RPMI8226 cells assessed as growth inhibition at 10 uM after 24 hrs by SRB assay; format: functional
PC-3 = assay: Cytotoxicity against human PC3 cells assessed as growth inhibition at 10 uM after 24 hrs by SRB assay; format: functional
MDA-MB-435 = assay: Cytotoxicity against human MDA-MB-435 cells assessed as growth inhibition at 10 uM after 24 hrs by SRB assay; format: functional
K562 = assay: Cytotoxicity against human K562 cells assessed as growth inhibition at 10 uM after 24 hrs by SRB assay; format: functional
Hs-578T = assay: Cytotoxicity against human Hs578T cells assessed as growth inhibition at 10 uM after 24 hrs by SRB assay; format: functional
NCI-H226 = assay: Cytotoxicity against human NCI-H226 cells assessed as growth inhibition at 10 uM after 24 hrs by SRB assay; format: functional
OVCAR-8 = assay: Cytotoxicity against human OVCAR8 cells assessed as growth inhibition at 10 uM after 24 hrs by SRB assay; format: functional
UACC-257 = assay: Cytotoxicity against human UACC257 cells assessed as growth inhibition at 10 uM after 24 hrs by SRB assay; format: functional
U-251 = assay: Cytotoxicity against human U251 cells assessed as growth inhibition at 10 uM after 24 hrs by SRB assay; format: functional
Malme-3M = assay: Cytotoxicity against human MALME-3M cells assessed as growth inhibition at 10 uM after 24 hrs by SRB assay; format: functional
HCT-116 = assay: Cytotoxicity against human HCT116 cells assessed as growth inhibition at 10 uM after 24 hrs by SRB assay; format: functional
UACC-62 = assay: Cytotoxicity against human UACC62 cells assessed as growth inhibition at 10 uM after 24 hrs by SRB assay; format: functional
T47D = assay: Cytotoxicity against human T47D cells assessed as growth inhibition at 10 uM after 24 hrs by SRB assay; format: functional
SF-539 = assay: Cytotoxicity against human SF539 cells assessed as growth inhibition at 10 uM after 24 hrs by SRB assay; format: functional
NCI/ADR-RES = assay: Cytotoxicity against human NCI/ADR-RES cells assessed as growth inhibition at 10 uM after 24 hrs by SRB assay; format: functional
HL-60(TB) = assay: Cytotoxicity against human HL-60(TB) cells assessed as growth inhibition at 10 uM after 24 hrs by SRB assay; format: functional
SF-295 = assay: Cytotoxicity against human SF295 cells assessed as growth inhibition at 10 uM after 24 hrs by SRB assay; format: functional
NCI-H522 = assay: Cytotoxicity against human NCI-H522 cells assessed as growth inhibition at 10 uM after 24 hrs by SRB assay; format: functional
A549 = assay: Cytotoxicity against human A549 cells assessed as growth inhibition at 10 uM after 24 hrs by SRB assay; format: functional
SK-OV-3 = assay: Cytotoxicity against human SKOV3 cells assessed as growth inhibition at 10 uM after 24 hrs by SRB assay; format: functional
MCF7 = assay: Cytotoxicity against human MCF7 cells assessed as growth inhibition at 10 uM after 24 hrs by SRB assay; format: functional
HOP-62 = assay: Cytotoxicity against human HOP62 cells assessed as growth inhibition at 10 uM after 24 hrs by SRB assay; format: functional
OVCAR-4 = assay: Cytotoxicity against human OVCAR4 cells assessed as growth inhibition at 10 uM after 24 hrs by SRB assay; format: functional
ACHN = assay: Cytotoxicity against human ACHN cells assessed as growth inhibition at 10 uM after 24 hrs by SRB assay; format: functional
786-0 = assay: Cytotoxicity against human 786-0 cells assessed as growth inhibition at 10 uM after 24 hrs by SRB assay; format: functional

| Compound | growth inhibition (GI) (RXF 393) | growth inhibition (GI) (OVCAR-3) | growth inhibition (GI) (HOP-92) | growth inhibition (GI) (NCI-H460) | growth inhibition (GI) (SK-MEL-28) | inhibition (Ovis aries) | inhibition of growth at 10 µM (SR) [%] | growth inhibition (GI) (TK-10) | growth inhibition (GI) (Hs-578T) | growth inhibition (GI) (NCI-H226) | growth inhibition (GI) (OVCAR-8) | growth inhibition (GI) (UACC-257) | growth inhibition (GI) (U-251) | growth inhibition (GI) (UACC-62) | growth inhibition (GI) (SF-539) | growth inhibition (GI) (NCI/ADR-RES) | growth inhibition (GI) (HL-60(TB)) | growth inhibition (GI) (SF-295) | growth inhibition (GI) (NCI-H522) | growth inhibition (GI) (A549) | further results |
| --- | --- | --- | --- | --- | --- | --- | --- | --- | --- | --- | --- | --- | --- | --- | --- | --- | --- | --- | --- | --- | --- |
| COc1nc(OC)nc(-c2cc(C(=O)c3cc(OC)c(OC)c(OC)c3)n3ccccc23)n1 | inactive | inactive | inactive | inactive | inactive | inactive | 20 | inactive | inactive | inactive | inactive | inactive | inactive | inactive | inactive | inactive | inactive | inactive | inactive | inactive | growth inhibition (GI) (MDA-MB-231): inactive; growth inhibition (GI) (SK-MEL-5): inactive; growth inhibition (GI) (SNB-75): inactive; growth inhibition (GI) (CCRF-CEM): inactive; growth inhibition (GI) (CAKI-1): inactive; growth inhibition (GI) (RPMI-8226): inactive; growth inhibition (GI) (PC-3): inactive; inhibition of growth at 10 µM (MDA-MB-435; MDA-MB-435, 24 h, read-out: GI): 35%; inhibition of growth at 10 µM (K562; K562, 24 h, read-out: GI): 10%; inhibition of growth at 10 µM (Malme-3M; read-out: GI): 11%; growth inhibition (GI) (HCT-116): inactive; growth inhibition (GI) (T47D): inactive; growth inhibition (GI) (SK-OV-3): inactive; growth inhibition (GI) (MCF7): inactive; growth inhibition (GI) (HOP-62): inactive; growth inhibition (GI) (OVCAR-4): inactive; growth inhibition (GI) (ACHN): inactive; growth inhibition (GI) (786-0): inactive |
| COc1nc(OC)nc(-c2cc(C(=O)c3ccc(C)cc3)n3ccccc23)n1 | inactive | inactive | inactive | inactive | inactive | inactive | 22 | inactive | inactive | inactive | inactive | inactive | inactive | inactive | inactive | inactive | inactive | inactive | inactive | inactive | inhibition of growth at 10 µM (MDA-MB-231; MDA-MB-231, 24 h, read-out: GI): 35%; inhibition of growth at 10 µM (SK-MEL-5; SK-MEL-5, 24 h, read-out: GI): 19%; inhibition of growth at 10 µM (SNB-75; SNB-75, 24 h, read-out: GI): 18%; inhibition of growth at 10 µM (CCRF-CEM; read-out: GI): 13%; inhibition of growth at 10 µM (CAKI-1; CAKI-1, 24 h, read-out: GI): 43%; inhibition of growth at 10 µM (RPMI-8226; RPMI-8226, 24 h, read-out: GI): 26%; inhibition of growth at 10 µM (PC-3; PC-3, 24 h, read-out: GI): 13%; growth inhibition (GI) (MDA-MB-435): inactive; growth inhibition (GI) (K562): inactive; growth inhibition (GI) (Malme-3M): inactive; inhibition of growth at 10 µM (HCT-116; HCT-116, 24 h, read-out: GI): 12%; inhibition of growth at 10 µM (T47D; read-out: GI): 15%; growth inhibition (GI) (SK-OV-3): inactive; inhibition of growth at 10 µM (MCF7; MCF7, 24 h, read-out: GI): 10%; growth inhibition (GI) (HOP-62): inactive; growth inhibition (GI) (OVCAR-4): inactive; growth inhibition (GI) (ACHN): inactive; growth inhibition (GI) (786-0): inactive |
